Like-named read-outs stand apart in the source and are kept apart here. Each block holds one compound with its values, some of them ahead of it.
Tests used:
[1] = test system: Human promyelocytic leukemia HL-60 cells; assay: Cell differentiation of HL-60 cells, nitroblue tetrazolium (NBT) reduction; format: cell-based; conditions: for NBT (+) %: HL-60; for EC50: Homo sapiens
Experimental: Human promyelocytic leukemia HL-60 cells were cultured in RPMI-1640 medium supplemented by 10% heat-inactivated calf serum and 100 U/ml of penicillin plus 100 μg/ml of streptomycin. The flasks containing cells and medium were incubated in an incubator with 5% CO2 at 37° C. Log phase cells were seeded into the medium at a concentration of 1.2×10^5to 1.4×10^5 cells per ml and cultured in flasks containing 5 ml of medium. Each group consisted of three flasks. Different concentrations of coumarin-retinoids were added. At intervals following the addition of coumarin-retinoids to the cultures, a small portion of cells was removed and live cells were counted under a light microscope using a dye-exclusionmethod with trypan blue. Cell differentiation was judged in terms of morphology and nitroblue tetrazolium (NBT) reduction.
For a determination of NBT reducing activity, a portion of the coumarin-retinoid-treated cells was removed at intervals following treatment and centrifuged. After centrifugation, 0.5 ml of 0.1% NBT (containing 100 ng TPA) was added to each tube. The contents of the test tubes were then incubated for 1 hour at 37° C. Cell smears were prepared from the cell sediment and stained using the Wright-Giemsa technique. For each smear prepared, 200 cells were isolated for examination under a light microscope with an oil immersion lens. Cells stained with blue-black granules were considered NBT-positive cells. The 50% differentiation or effective concentration (ED50 or EC50) is shown in terms of molar (M) concentration of the […] tested.
(§1) The protocols of Examples 14 and 21 were used, for the NBT and MTT assays, respectively.

[2] = test system: HL-60 cells; assay: MTT assay in HL-60 cells; format: cell-based, human; conditions: for inhibition at 10 µM: 10^-5 M; for inhibition at 10 µM / inhibition at 1 µM / inhibition at 0.1 µM / inhibition at 0.01 µM: HL-60; for inhibition at 1 µM: 10^-6 M; for inhibition at 0.1 µM: 10^-7 M; for inhibition at 0.01 µM: 10^-8 M
Experimental: Human cancer cell lines (KB, A2780, MCF-7, HL-60, A549) were used. For a monolayer culture, 0.5 ml of trypsin solution ([…]) was added to the flasks for digestion. Microtiter plates (96 well) were used for the cell culture and 200 μl of cell suspension (1200 tumor cells) were placed in each well and incubated at 37° C. for 24 hours. Following the addition of the test compound, the control and treated flasks were placed in a CO2 incubator for 5 day culture. For the MTT assay, 200 μl of MTT solution (5 mg in 10 ml of phosphate buffer) plus the medium were added and incubated for another 4 hours. Following incubation, the supernatant was discarded and 200 μl of DMSO was added to each well. With a mild agitation the OD values were determined by the MR 700 Elisa at 570 nm (reference wavelength was 450 nm). The ED50 of the compound and tumor cell survival rate [formula] as percent inhibition were calculated.
as §1

[3] = test system: bone abnormalities in mouse fetus; assay: Bone abnormalities in mouse fetus (anti-teratogenicity); format: in vivo
Experimental: Female mice were examined by vaginal smear the morning after being caged with male mice, and if sperm or a vaginal plug was discovered, then the mice were determined to be pregnant. The retinoids were administered at the dosage indicated starting on the seventh day of pregnancy and continued once a day for the next ten days. On the 20th day after the female mice were determined to be pregnant, they were sacrificed by cervical dislocation. Both sides of the uterus were checked and the number of living embryos, dead embryos, and absorbed embryos were counted. The living embryos were further examined for bone abnormalities.
After the embryos became transparent, they were dissected and their skeletons were checked by observation under a microscope.

[4] = NBT reduction, 50% differentiation, HL-60 (Table 2), read-out: EC50
[5] = Homo sapiens, 120 h, MTT, HL-60 (Table 12), read-out: ED50 (the source's name)
[6] = Homo sapiens, 120 h, HL-60 (Table 15), read-out: MTT ED50
[7] = HL-60 (Table 15), read-out: NBT ED50

- EC50 [1, 4]: 2000 nM
SMILES: CC(=O)c1cc2c(C)cc(OC(=O)/C=C(C)/C=C/C=C(C)/C=C/C3=C(C)CCCC3(C)C)cc2oc1=O [Compound I-2]
- NBT (+) % ([1]; 10^-5 M): 38%

- EC50 [1, 4]: 800 nM
SMILES: CC(=O)c1cc2ccc(OC(=O)/C=C(C)/C=C/C=C(C)/C=C/C3=C(C)CCCC3(C)C)c(C)c2oc1=O [Compound I-3]

- EC50 [1, 4]: 70 nM
SMILES: CC(=O)c1cc2c(C(=O)O)cc(OC(=O)/C=C(C)/C=C/C=C(C)/C=C/C3=C(C)CCCC3(C)C)cc2oc1=O [Compound I-4, 3-acetyl-5-carboxy-7-retinoyloxy coumarin]

- EC50 [1, 4]: 750 nM
SMILES: CC(=O)c1cc2c(COC(=O)/C=C(C)/C=C/C=C(C)/C=C/C3=C(C)CCCC3(C)C)cc(OC(=O)/C=C(C)/C=C/C=C(C)/C=C/C3=C(C)CCCC3(C)C)cc2oc1=O [Compound I-7]

- IC50 [2, 5]: 100 nM
- EC50 [1, 4]: 59 nM
SMILES: CC(=O)c1cc2c(OC(=O)/C=C(C)/C=C/C=C(C)/C=C/C3=C(C)CCCC3(C)C)c(C(=O)O)ccc2oc1=O [Compound I-8]
- inhibition at 10 µM ([2]; Homo sapiens, MTT): 63.9 ± 2.9%
- inhibition at 1 µM ([2]; Homo sapiens, MTT): 54 ± 1.9%
- inhibition at 0.1 µM ([2]; Homo sapiens, MTT): 50.5 ± 0.9%
- inhibition at 0.01 µM ([2]; Homo sapiens, MTT): 29.7 ± 1.4%

SMILES: CC(=O)c1cc2ccc(OC(=O)/C=C(C)/C=C/C=C(C)/C=C/C3=C(C)CCCC3(C)C)c(OC(=O)/C=C(C)/C=C/C=C(C)/C=C/C3=C(C)CCCC3(C)C)c2oc1=O [Compound I-9]
- IC50 [2, 5]: 950 nM
- inhibition at 10 µM ([2]; Homo sapiens, MTT): 61.5 ± 1.9%
- inhibition at 1 µM ([2]; Homo sapiens, MTT): 50.6 ± 0.5%
- inhibition at 0.1 µM ([2]; Homo sapiens, MTT): 48.8 ± 0.5%
- inhibition at 0.01 µM ([2]; Homo sapiens, MTT): 28 ± 5.2%
- Delayed Calcification, Occipital delay/fetus ([3]; 20 mg/kg): 0/75
- Delayed Calcification, Sternum delay/fetus ([3]; 20 mg/kg): 0/75
- Delayed Calcification, Occipital delay/fetus ([3]; 40 mg/kg): 3/77
- Delayed Calcification, Sternum delay/fetus ([3]; 40 mg/kg): 2/77
- EC50 [1, 4]: 65 nM

- EC50 [1, 4]: 3000 nM
SMILES: CCOC(=O)c1cc(OC(=O)/C=C(C)/C=C/C=C(C)/C=C/C2=C(C)CCCC2(C)C)cc2oc(=O)c(C(C)=O)cc12 [Compound I-11, 3-acetyl-5-ethoxycarbyl-7-retinoyloxy-coumarin]

- EC50 [1, 4]: 10 nM
SMILES: CCCCCCCCCCCCOC(=O)c1cc(OC(=O)/C=C(C)/C=C/C=C(C)/C=C/C2=C(C)CCCC2(C)C)c(OC(=O)/C=C(C)/C=C/C=C(C)/C=C/C2=C(C)CCCC2(C)C)c2oc(=O)c(C(=O)OCC)cc12 [Compound I-12]

- IC50 [2, 5]: > 10000 nM
SMILES: CCc1cc2cc(C(C)=O)c(=O)oc2cc1OC(=O)/C=C(C)/C=C/C=C(C)/C=C/C1=C(C)CCCC1(C)C [Compound I-13]
- inhibition at 10 µM ([2]; Homo sapiens, MTT): 5.5 ± 3.9%
- inhibition at 1 µM ([2]; Homo sapiens, MTT): 4.3 ± 6.1%
- inhibition at 0.1 µM ([2]; Homo sapiens, MTT): 3.5 ± 3.9%

- IC50 [2, 5]: 9000 nM
SMILES: CCCCCCc1cc2cc(C(C)=O)c(=O)oc2c(C)c1OC(=O)/C=C(C)/C=C/C=C(C)/C=C/C1=C(C)CCCC1(C)C [Compound I-14]
- inhibition at 10 µM ([2]; Homo sapiens, MTT): 52.6 ± 1.3%
- inhibition at 1 µM ([2]; Homo sapiens, MTT): 30 ± 1.4%
- inhibition at 0.1 µM ([2]; Homo sapiens, MTT): 10.4 ± 2.4%

- IC50 [2, 5]: 900 nM
- EC50 [1, 4]: 260 nM
SMILES: CCOC(=O)c1cc2ccc(OC(=O)/C=C(C)/C=C/C=C(C)/C=C/C3=C(C)CCCC3(C)C)c(C)c2oc1=O [Compound I-15]
- inhibition at 10 µM ([2]; Homo sapiens, MTT): 54.5 ± 2.8%
- inhibition at 1 µM ([2]; Homo sapiens, MTT): 48.8 ± 1.3%
- inhibition at 0.1 µM ([2]; Homo sapiens, MTT): 34.6%
- inhibition at 0.01 µM ([2]; Homo sapiens, MTT): 16.2 ± 2.4%

- EC50 [1, 4]: 1000 nM
SMILES: CCOC(=O)c1cc2ccc(OC(=O)/C=C(C)/C=C/C=C(C)/C=C/C3=C(C)CCCC3(C)C)cc2oc1=O [Compound I-17]

- EC50 [1, 4]: 10000 nM
SMILES: CCOC(=O)c1cc2cc(Cl)c(OC(=O)/C=C(C)/C=C/C=C(C)/C=C/C3=C(C)CCCC3(C)C)cc2oc1=O [Compound I-18]

- EC50 [1, 4]: 9000 nM
SMILES: CCOC(=O)c1cc2c(C(=O)O)cc(OC(=O)/C=C(C)/C=C/C=C(C)/C=C/C3=C(C)CCCC3(C)C)cc2oc1=O [Compound I-19]
- NBT (+) % ([1]; 10^-4 M): 84%
- NBT (+) % ([1]; 10^-5 M): 5%
- NBT (+) % ([1]; 10^-7 M): 92%

- IC50 [2, 5]: 1000 nM
- EC50 [1, 4]: 250 nM
SMILES: CCOC(=O)c1cc2c(OC(=O)/C=C(C)/C=C/C=C(C)/C=C/C3=C(C)CCCC3(C)C)cc(OC(=O)/C=C(C)/C=C/C=C(C)/C=C/C3=C(C)CCCC3(C)C)cc2oc1=O [Compound I-21]
- inhibition at 10 µM ([2]; Homo sapiens, MTT): 61.2 ± 2.4%
- inhibition at 1 µM ([2]; Homo sapiens, MTT): 49.9 ± 2.5%
- inhibition at 0.1 µM ([2]; Homo sapiens, MTT): 32.5 ± 1.1%
- inhibition at 0.01 µM ([2]; Homo sapiens, MTT): 21.8 ± 3.1%

- IC50 [2, 5]: 900 nM
- EC50 [1, 4]: 80 nM
SMILES: CC1=C(/C=C/C(C)=C/C=C/C(C)=C/C(=O)Oc2cc(C(=O)O)c3cc(C(N)=O)c(=O)oc3c2)C(C)(C)CCC1 [Compound I-26]
- inhibition at 10 µM ([2]; Homo sapiens, MTT): 68.7 ± 0.2%
- inhibition at 1 µM ([2]; Homo sapiens, MTT): 52.6 ± 0.5%
- inhibition at 0.1 µM ([2]; Homo sapiens, MTT): 43.8 ± 1.3%
- inhibition at 0.01 µM ([2]; Homo sapiens, MTT): 9.4 ± 3.7%

- EC50 [1, 4]: 550 nM
SMILES: CC1=C(/C=C/C(C)=C/C=C/C(C)=C/C(=O)Oc2cc3oc(=O)c(C(N)=O)cc3cc2Cl)C(C)(C)CCC1 [Compound I-27]

- IC50 [2, 6]: > 10000 nM
SMILES: CC1=C(/C=C/C(C)=C/C=C/C(C)=C/C(=O)Oc2cc(=O)oc3ccc(C(C)(C)C)cc23)C(C)(C)CCC1 [Compound I-28, 4-retinoyloxy-6-t-butyl-coumarin]

- IC50 [2, 6]: 1900 nM
- EC50 [1, 7]: > 10000 nM
SMILES: CC1=C(/C=C/C(C)=C/C=C/C(C)=C/C(=O)Oc2cc(=O)oc3c(C)cccc23)C(C)(C)CCC1 [Compound I-29]

- IC50 [2, 6]: > 10000 nM
SMILES: CC1=C(/C=C/C(C)=C/C=C/C(C)=C/C(=O)Oc2ccc3c(C)cc(=O)oc3c2C)C(C)(C)CCC1 [Compound I-30]

- IC50 [2, 6]: > 10000 nM
SMILES: CCc1cc2c(C)cc(=O)oc2cc1OC(=O)/C=C(C)/C=C/C=C(C)/C=C/C1=C(C)CCCC1(C)C [Compound I-31, 4-methyl-6-ethyl-7-retinoyloxy-coumarin]

- IC50 ([2]; HL-60 (Table 15), 7200 min, read-out: MTT ED50): 11000 nM
SMILES: CC1=C(/C=C/C(C)=C/C=C/C(C)=C/C(=O)Oc2ccc3c(C)cc(=O)oc3c2)C(C)(C)CCC1 [Compound I-32, 4-methyl-7-retinoyloxy-coumarin]

- IC50 [2, 6]: 3200 nM
- EC50 [1, 7]: > 10000 nM
SMILES: CC1=C(/C=C/C(C)=C/C=C/C(C)=C/C(=O)Oc2cc(OC(=O)/C=C(C)/C=C/C=C(C)/C=C/C3=C(C)CCCC3(C)C)c3c(C)cc(=O)oc3c2)C(C)(C)CCC1 [Compound I-33, 4-methyl-5,7-diretinoyloxy-coumarin]

- IC50 [2, 6]: > 10000 nM
SMILES: CCCCCCc1cc2c(C)cc(=O)oc2cc1OC(=O)/C=C(C)/C=C/C=C(C)/C=C/C1=C(C)CCCC1(C)C [Compound I-34, 4-methyl-6-hexyl-7-retinoyloxy-coumar in]

- IC50 [2, 6]: 2600 nM
- EC50 [1, 7]: 6700 nM
SMILES: CC1=C(/C=C/C(C)=C/C=C/C(C)=C/C(=O)Oc2cc(=O)oc3ccc(C)cc23)C(C)(C)CCC1 [Compound I-35, 4-retinoyloxy-6-methyl-coumarin]

- IC50 [2, 6]: 3200 nM
- EC50 [1, 7]: > 10000 nM
SMILES: CC1=C(/C=C/C(C)=C/C=C/C(C)=C/C(=O)Oc2ccc3c(C)cc(=O)oc3c2OC(=O)/C=C(C)/C=C/C=C(C)/C=C/C2=C(C)CCCC2(C)C)C(C)(C)CCC1 [Compound I-36, 4-methyl-7,8-diretinoyloxy-coumarin]

From patent publication US5716982A, “Retinoids and methods of use of same” (priority 1995, dated 1998)
